Reference: ChEMBL document CHEMBL1201862, “PubChem BioAssay data set” (2004)
The source made the active and inactive calls.

Assays:
cells [1] = assay: cells
[2] = molecular target: T1, Oxysterols receptor LXR-beta (Homo sapiens, UniProt P55055); format: functional, cell-based;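 also: Cell-based luminescence dose-response assay of agonist activity at LXR, run as a confirmatory counterscreen to a daf-12 agonist screen; HEK293 cells with Gal4-LXR fusion and GAL4-driven luciferase reporter; agonist potency from rising luciferase signal of a Gal4-LXR reporter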
T1 sequence (P55055 whole entry): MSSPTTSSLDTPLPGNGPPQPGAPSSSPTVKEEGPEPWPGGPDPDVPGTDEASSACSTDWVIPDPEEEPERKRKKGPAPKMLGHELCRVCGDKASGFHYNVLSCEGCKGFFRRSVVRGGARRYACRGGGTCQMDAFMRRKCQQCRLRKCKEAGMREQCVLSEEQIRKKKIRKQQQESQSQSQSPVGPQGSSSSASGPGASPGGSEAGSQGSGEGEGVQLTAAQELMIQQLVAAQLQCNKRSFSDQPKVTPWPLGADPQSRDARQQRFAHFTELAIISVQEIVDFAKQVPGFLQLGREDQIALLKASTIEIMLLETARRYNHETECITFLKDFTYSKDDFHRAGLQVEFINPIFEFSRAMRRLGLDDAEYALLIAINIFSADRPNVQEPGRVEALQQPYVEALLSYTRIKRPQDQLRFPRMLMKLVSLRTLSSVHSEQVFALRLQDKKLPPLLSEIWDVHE

cells [3] = format: functional, cell-based
[4] = molecular target: T2, Trace amine-associated receptor 1 (Homo sapiens, UniProt Q96RJ0); assay: Fluorescence-based cell-based high throughput dose response assay to identify agonists of the human trace amine associated receptor 1 (TAAR1).; format: functional
T2 sequence (Q96RJ0 whole entry): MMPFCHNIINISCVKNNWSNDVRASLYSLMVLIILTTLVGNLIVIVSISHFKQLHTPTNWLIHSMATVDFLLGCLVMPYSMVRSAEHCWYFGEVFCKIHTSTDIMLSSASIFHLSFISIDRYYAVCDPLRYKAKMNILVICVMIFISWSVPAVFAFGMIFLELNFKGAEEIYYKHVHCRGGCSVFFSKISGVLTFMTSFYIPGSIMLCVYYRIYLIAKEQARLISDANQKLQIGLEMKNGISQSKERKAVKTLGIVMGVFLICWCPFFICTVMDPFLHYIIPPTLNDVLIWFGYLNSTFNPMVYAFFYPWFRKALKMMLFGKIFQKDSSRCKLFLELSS

[5] = molecular target: T2, Trace amine-associated receptor 1; assay: Counterscreen for agonists of the human trace amine associated receptor 1 (hTAAR1): Fluorescence-based cell-based high throughput dose response assay to identify hTAAR1 agonist that also desensitize TAAR1 receptor response.; format: functional
cells [6] = format: functional, cell-based; remark: listed apart in the source
fMet-Leu-Phe receptor = molecular target: T3, fMet-Leu-Phe receptor (Homo sapiens, UniProt P21462); assay: formyl peptide receptor binders – dose response (AID 519); format: functional
T3 sequence (P21462 whole entry): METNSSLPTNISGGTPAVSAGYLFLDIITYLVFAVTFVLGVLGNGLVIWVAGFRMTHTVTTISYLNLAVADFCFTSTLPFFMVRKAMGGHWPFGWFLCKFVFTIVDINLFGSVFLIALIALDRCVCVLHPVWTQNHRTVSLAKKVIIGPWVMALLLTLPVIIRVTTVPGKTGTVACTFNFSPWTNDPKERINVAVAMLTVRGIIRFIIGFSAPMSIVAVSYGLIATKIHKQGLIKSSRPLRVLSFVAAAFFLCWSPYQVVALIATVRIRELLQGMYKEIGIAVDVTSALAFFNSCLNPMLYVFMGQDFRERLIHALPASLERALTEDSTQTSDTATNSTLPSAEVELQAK

Caspase-3 = molecular target: T4, Caspase-3 (Homo sapiens, UniProt P42574); format: functional;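 also: Dose-response selectivity test against caspase-3 for candidate inhibitors of sentrin-specific proteases (SENPs)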
T4 sequence (P42574 whole entry): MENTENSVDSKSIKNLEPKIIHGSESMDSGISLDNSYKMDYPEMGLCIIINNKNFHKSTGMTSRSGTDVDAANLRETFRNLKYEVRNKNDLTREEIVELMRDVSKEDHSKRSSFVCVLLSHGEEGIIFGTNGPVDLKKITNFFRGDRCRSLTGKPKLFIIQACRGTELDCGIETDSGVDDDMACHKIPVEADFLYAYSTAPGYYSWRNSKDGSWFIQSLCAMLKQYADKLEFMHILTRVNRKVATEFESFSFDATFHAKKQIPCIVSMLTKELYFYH

[7] = molecular target: T5, Sentrin-specific protease 6 (Homo sapiens, UniProt Q9GZR1); format: functional;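 also: Luminescence-based dose-response confirmatory assay of SENP6 inhibition, following up an ultra-high-throughput screen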
T5 sequence (Q9GZR1 whole entry): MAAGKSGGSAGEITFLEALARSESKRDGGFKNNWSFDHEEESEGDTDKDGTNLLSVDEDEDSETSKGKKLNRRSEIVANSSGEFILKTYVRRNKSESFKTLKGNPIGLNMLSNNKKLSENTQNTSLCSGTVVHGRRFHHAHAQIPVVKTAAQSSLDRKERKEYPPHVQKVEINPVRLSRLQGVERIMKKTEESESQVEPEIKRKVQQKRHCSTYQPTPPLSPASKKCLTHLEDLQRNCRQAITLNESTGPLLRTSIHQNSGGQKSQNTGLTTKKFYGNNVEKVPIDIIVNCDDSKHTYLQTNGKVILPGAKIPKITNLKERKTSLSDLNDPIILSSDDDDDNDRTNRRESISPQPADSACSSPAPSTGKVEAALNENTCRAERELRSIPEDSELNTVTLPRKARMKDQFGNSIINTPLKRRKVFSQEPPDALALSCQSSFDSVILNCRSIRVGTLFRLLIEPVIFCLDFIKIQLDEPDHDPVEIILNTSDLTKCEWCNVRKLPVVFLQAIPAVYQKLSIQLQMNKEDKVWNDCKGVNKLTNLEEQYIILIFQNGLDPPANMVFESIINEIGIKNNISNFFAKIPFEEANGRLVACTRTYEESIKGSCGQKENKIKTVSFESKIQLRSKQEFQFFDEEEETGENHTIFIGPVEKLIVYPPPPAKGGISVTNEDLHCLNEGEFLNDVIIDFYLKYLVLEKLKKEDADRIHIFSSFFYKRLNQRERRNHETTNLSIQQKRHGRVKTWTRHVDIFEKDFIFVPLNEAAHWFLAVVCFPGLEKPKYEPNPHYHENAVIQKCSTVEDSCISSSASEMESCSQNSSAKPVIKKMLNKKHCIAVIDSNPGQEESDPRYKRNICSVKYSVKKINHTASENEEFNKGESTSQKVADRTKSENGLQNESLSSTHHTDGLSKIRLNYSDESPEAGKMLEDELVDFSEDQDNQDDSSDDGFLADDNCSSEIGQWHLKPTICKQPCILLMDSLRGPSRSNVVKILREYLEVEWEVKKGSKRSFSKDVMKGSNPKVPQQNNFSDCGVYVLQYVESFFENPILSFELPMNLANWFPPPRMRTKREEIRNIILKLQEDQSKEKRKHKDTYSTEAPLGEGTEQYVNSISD

[8] = molecular target: T6, Sentrin-specific protease 7 (Homo sapiens, UniProt Q9BQF6); format: functional;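 also: Luminescence-based dose-response confirmation of ultra-high-throughput screening hits, measuring inhibition of SENP7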
T6 sequence (Q9BQF6 whole entry): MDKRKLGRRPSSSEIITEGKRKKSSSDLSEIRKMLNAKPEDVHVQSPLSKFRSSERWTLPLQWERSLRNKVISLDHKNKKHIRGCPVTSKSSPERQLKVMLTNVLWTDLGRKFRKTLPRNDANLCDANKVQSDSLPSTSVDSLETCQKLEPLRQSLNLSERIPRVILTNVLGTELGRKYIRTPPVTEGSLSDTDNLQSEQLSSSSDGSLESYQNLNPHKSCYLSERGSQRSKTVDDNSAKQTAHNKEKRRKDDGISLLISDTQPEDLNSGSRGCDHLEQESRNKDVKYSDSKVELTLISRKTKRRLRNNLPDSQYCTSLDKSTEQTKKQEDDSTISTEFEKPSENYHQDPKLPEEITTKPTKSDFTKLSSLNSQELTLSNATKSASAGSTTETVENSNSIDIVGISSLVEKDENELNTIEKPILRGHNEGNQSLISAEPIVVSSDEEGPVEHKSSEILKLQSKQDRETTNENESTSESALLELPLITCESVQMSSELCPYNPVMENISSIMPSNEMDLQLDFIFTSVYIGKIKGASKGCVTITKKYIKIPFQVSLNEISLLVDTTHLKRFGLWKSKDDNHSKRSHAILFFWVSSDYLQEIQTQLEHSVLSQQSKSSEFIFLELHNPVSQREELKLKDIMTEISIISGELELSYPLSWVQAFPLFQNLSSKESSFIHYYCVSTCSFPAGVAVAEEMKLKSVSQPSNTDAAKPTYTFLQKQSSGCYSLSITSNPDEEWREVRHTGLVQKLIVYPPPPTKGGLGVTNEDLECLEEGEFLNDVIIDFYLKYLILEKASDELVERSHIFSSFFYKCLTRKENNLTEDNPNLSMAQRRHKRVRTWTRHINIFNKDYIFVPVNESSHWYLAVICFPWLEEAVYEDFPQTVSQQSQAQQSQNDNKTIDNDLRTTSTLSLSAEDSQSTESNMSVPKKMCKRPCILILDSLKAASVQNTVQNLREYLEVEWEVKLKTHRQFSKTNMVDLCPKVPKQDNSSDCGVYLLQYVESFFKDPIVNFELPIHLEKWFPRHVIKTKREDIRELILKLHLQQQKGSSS

[9] = molecular target: T7, Sentrin-specific protease 8 (Homo sapiens, UniProt Q96LD8); format: functional;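 also: luminescence read-out of SENP8 inhibition, dose-response confirmation following an ultra-high-throughput screen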
T7 sequence (Q96LD8 whole entry): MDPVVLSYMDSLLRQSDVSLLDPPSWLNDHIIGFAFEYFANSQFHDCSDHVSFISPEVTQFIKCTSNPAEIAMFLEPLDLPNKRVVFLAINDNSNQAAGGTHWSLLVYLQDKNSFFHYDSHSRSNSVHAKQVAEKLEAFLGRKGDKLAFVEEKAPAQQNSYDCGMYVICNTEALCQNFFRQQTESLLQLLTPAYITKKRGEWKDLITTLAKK

O=C1C(/C=N/Cc2ccco2)=C(O)c2ccccc21
EC50 (cells [1]): > 67.5 µM (inactive) | EC50 [2]: > 67.5 µM (inactive)

O=C(O)/C=C/C(=O)NCCCc1ccccc1
EC50 (cells [3]): > 29.9 µM (inactive) | EC50 [4]: 7.06 µM (active) | IC50 [5]: > 29.9 µM (inactive) | IC50 (cells [6]): > 29.9 µM (inactive)

CC1=C(C#N)C(c2ccc3ncccc3c2)C(C#N)=C(C)N1
Ki (fMet-Leu-Phe receptor): > 66.7 µM (inactive)

CCOC(=O)c1c(C)[nH]c(/C=N/c2ccccc2)c1O
Ki (fMet-Leu-Phe receptor): > 66.7 µM (inactive)

NC(=O)c1c(NC(=O)c2ccccc2)sc2c1CCC2
IC50 (Caspase-3): 27.7 µM (active) | EC50 (cells [1]): > 67.5 µM (inactive) | EC50 [2]: > 67.5 µM (inactive) | IC50 [7]: > 100 µM (inactive) | IC50 [8]: 7.52 µM (active) | IC50 [9]: > 100 µM (inactive)
